Assay results published in ChEMBL document CHEMBL1151179, “Isolation of salicin derivatives from Homalium cochinchinensis and their antiviral activities” (J Nat Prod, 2004).

Key:
Assay type in all cases: functional, organism-based
Human alphaherpesvirus 2 = experiment: Antiviral activity against HSV2
Human alphaherpesvirus 1 = experiment: Antiviral activity against HSV1
[1] = test system: Human immunodeficiency virus 1; experiment: Antiviral activity against HIV1

Row | SMILES | EC50 (Human alphaherpesvirus 2) | EC50 (Human alphaherpesvirus 1) | EC50 [1]
1 | Nc1nc2c(ncn2COCCO)c(=O)[nH]1 [ACYCLOVIR] | 1 µM | 1.1 µM | –
2 | O=C(O[C@H]1[C@H](Oc2c(O)cccc2COC(=O)C2(O)C=CCCC2=O)O[C@H](CO)[C@@H](O)[C@@H]1O)c1ccccc1 (stereo partly specified) [COCHINCHISIDE B] | 76 µM | 76 µM | > 18 µM
3 | O=C1OC2=C[C@@H](O)CCC2=C1C(O)c1ccccc1 (stereo partly specified) [COCHINOLIDE] | 86 µM | 31 µM | –
4 | O=c1[nH]cnc2c1ncn2[C@H]1CC[C@@H](CO)O1 [DIDANOSINE] | – | – | 2.1 µM
5 | O=C(O[C@H]1[C@H](Oc2ccccc2COC(=O)[C@]2(O)C=CCC[C@@H]2O)O[C@H](CO)[C@@H](O)[C@@H]1O)c1ccccc1 [TREMULACINOL] | > 188 µM | > 188 µM | –
6 | O=C(O[C@H]1[C@H](Oc2ccccc2COC(=O)C2(O)C=CCCC2=O)O[C@H](CO)[C@@H](O)[C@@H]1O)c1ccccc1 (stereo partly specified) [TREMULACIN] | 86 µM | 87 µM | 52 µM
7 | O=C(O[C@H]1[C@H](Oc2ccccc2CO)O[C@H](CO)[C@@H](O)[C@@H]1O)c1ccccc1 [TREMULDIN] | > 256 µM | > 256 µM | –
8 | Cc1cn([C@H]2C[C@H](N=[N+]=[N-])[C@@H](CO)O2)c(=O)[nH]c1=O [ZIDOVUDINE] | – | – | 0.02 µM
